Earlier results as cited in patent publication US20050250805A1, “Pharmaceutical ointment formulations” (Glenmark Pharmaceuticals Limited, priority 2004, published 2005).

Columns and labels:
human subjects = conditions: 50 human subjects, total of 15 applications; according to the manufacturer's brochure

SMILES: CN1CCCC1=O [Pharmasolve, N-methyl-2-pyrrolidone]
- PII (skin irritation; practically nonirritating to rabbit skin) (rabbit skin): 0.5
- Primary dermal irritation / sensitization in repeated insult patch test (human subjects): neither a primary dermal irritant nor a sensitizer
